Experimental data from PubChem BioAssay (NCI).
Several values for one entry are separate records, joined by “and”; a condition that tells them apart may be missing. Identical values can stand only once.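 Exposure lasted 48 hours, with cells grown in 96-well plates and compounds tested at five concentrations. TGI: concentration producing complete growth inhibition.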

Tests used:
Assay in all cases: NCI tumour cell line growth inhibition, 48 h
NCI-H522 lung = tested on: NCI-H522 lung
SK-MEL-2 melanoma = tested on: SK-MEL-2 melanoma
HOP-18 NSCLC = tested on: HOP-18 NSCLC
OVCAR-4 ovarian = tested on: OVCAR-4 ovarian
IGROV1 ovarian = tested on: IGROV1 ovarian
SNB-19 CNS = tested on: SNB-19 CNS
LXFL 529 NSCLC = tested on: LXFL 529 NSCLC
M19-MEL melanoma = tested on: M19-MEL melanoma
M14 melanoma = tested on: M14 melanoma
U251 CNS = tested on: U251 CNS
UO-31 renal = tested on: UO-31 renal
TK-10 renal = tested on: TK-10 renal
SK-MEL-5 melanoma = tested on: SK-MEL-5 melanoma
HCC-2998 colon = tested on: HCC-2998 colon
COLO 205 colon = tested on: COLO 205 colon
A498 renal = tested on: A498 renal
SF-268 CNS = tested on: SF-268 CNS
KM20L2 colon = tested on: KM20L2 colon
UACC-62 melanoma = tested on: UACC-62 melanoma
SR leukemia = tested on: SR leukemia
ACHN renal = tested on: ACHN renal
RXF 393 renal = tested on: RXF 393 renal
HL-60(TB) leukemia = tested on: HL-60(TB) leukemia
K-562 leukemia = tested on: K-562 leukemia
MOLT-4 leukemia = tested on: MOLT-4 leukemia
SNB-75 CNS = tested on: SNB-75 CNS
UACC-257 melanoma = tested on: UACC-257 melanoma
SN12C renal = tested on: SN12C renal
SK-MEL-28 melanoma = tested on: SK-MEL-28 melanoma
SK-OV-3 ovarian = tested on: SK-OV-3 ovarian
MALME-3M melanoma = tested on: MALME-3M melanoma
SF-539 CNS = tested on: SF-539 CNS
SF-295 CNS = tested on: SF-295 CNS
SNB-78 CNS = tested on: SNB-78 CNS
CCRF-CEM leukemia = tested on: CCRF-CEM leukemia
DMS 273 small cell lung = tested on: DMS 273 small cell lung
RPMI-8226 leukemia = tested on: RPMI-8226 leukemia
HCT-116 colon = tested on: HCT-116 colon
OVCAR-8 ovarian = tested on: OVCAR-8 ovarian
A549 NSCLC = tested on: A549 NSCLC
DMS 114 small cell lung = tested on: DMS 114 small cell lung
LOX IMVI melanoma = tested on: LOX IMVI melanoma
KM12 colon = tested on: KM12 colon
OVCAR-5 ovarian = tested on: OVCAR-5 ovarian
DLD-1 colon = tested on: DLD-1 colon
HOP-62 NSCLC = tested on: HOP-62 NSCLC
EKVX NSCLC = tested on: EKVX NSCLC
OVCAR-3 ovarian = tested on: OVCAR-3 ovarian
SW-620 colon = tested on: SW-620 colon
HCT-15 colon = tested on: HCT-15 colon
NCI-H460 lung = tested on: NCI-H460 lung
NCI-H226 lung = tested on: NCI-H226 lung
HT29 colon = tested on: HT29 colon
786-0 renal = tested on: 786-0 renal
CAKI-1 renal = tested on: CAKI-1 renal
HOP-92 NSCLC = tested on: HOP-92 NSCLC
NCI-H23 lung = tested on: NCI-H23 lung

Question: How did the TGI (NCI-H522 lung) turn out when `CCCc1nc(NC#N)nc(C(=O)NC23CC4CC(CC(C4)C2)C3)c1C` was run?
Answer: The TGI was > 100 µM.

Question: And the TGI (SK-MEL-2 melanoma)?
Answer: The TGI was > 100 µM.

Question: And the TGI (HOP-18 NSCLC)?
Answer: The TGI was > 100 µM.

Question: And the TGI (OVCAR-4 ovarian)?
Answer: The TGI was > 100 µM.

Question: And the TGI (IGROV1 ovarian)?
Answer: The TGI was > 100 µM.

Question: And the TGI (SNB-19 CNS)?
Answer: The TGI was > 100 µM.

Question: And the TGI (LXFL 529 NSCLC)?
Answer: Its TGI is > 100 µM.

Question: And the TGI (M19-MEL melanoma)?
Answer: Its TGI is > 100 µM.

Question: And the TGI (M14 melanoma)?
Answer: Its TGI is > 100 µM.

Question: What about the TGI (U251 CNS) of the same compound?
Answer: The TGI was > 100 µM.

Question: What about the TGI (UO-31 renal) of the same compound?
Answer: Its TGI is > 100 µM.

Question: And the TGI (TK-10 renal)?
Answer: The TGI was > 100 µM.

Question: What about the TGI (SK-MEL-5 melanoma) of the same compound?
Answer: The TGI was > 100 µM.

Question: And the TGI (HCC-2998 colon)?
Answer: Its TGI is > 100 µM.

Question: And the TGI (COLO 205 colon)?
Answer: Its TGI is > 100 µM.

Question: And the TGI (A498 renal)?
Answer: The TGI was > 100 µM.

Question: What about the TGI (SF-268 CNS) of the same compound?
Answer: The TGI was > 100 µM.

Question: And the TGI (KM20L2 colon)?
Answer: The TGI was > 100 µM.

Question: What about the TGI (UACC-62 melanoma) of the same compound?
Answer: The TGI was > 100 µM.

Question: What about the TGI (SR leukemia) of the same compound?
Answer: The TGI was > 100 µM.

Question: What about the TGI (ACHN renal) of the same compound?
Answer: Its TGI is > 100 µM.

Question: What about the TGI (RXF 393 renal) of the same compound?
Answer: The TGI was > 100 µM.

Question: And the TGI (HL-60(TB) leukemia)?
Answer: The TGI was > 100 µM.

Question: What about the TGI (K-562 leukemia) of the same compound?
Answer: Its TGI is > 100 µM.

Question: What about the TGI (MOLT-4 leukemia) of the same compound?
Answer: Its TGI is > 100 µM.

Question: And the TGI (SNB-75 CNS)?
Answer: Its TGI is > 100 µM.

Question: And the TGI (UACC-257 melanoma)?
Answer: The TGI was > 100 µM.

Question: And the TGI (SN12C renal)?
Answer: Its TGI is > 100 µM.

Question: And the TGI (SK-MEL-28 melanoma)?
Answer: Its TGI is > 100 µM.

Question: And the TGI (SK-OV-3 ovarian)?
Answer: The TGI was > 100 µM.

Question: And the TGI (MALME-3M melanoma)?
Answer: The TGI was > 100 µM.

Question: What about the TGI (SF-539 CNS) of the same compound?
Answer: Its TGI is > 100 µM.

Question: And the TGI (SF-295 CNS)?
Answer: The TGI was > 100 µM.

Question: And the TGI (SNB-78 CNS)?
Answer: The TGI was > 100 µM.

Question: What about the TGI (CCRF-CEM leukemia) of the same compound?
Answer: The TGI was > 100 µM.

Question: What about the TGI (DMS 273 small cell lung) of the same compound?
Answer: The TGI was > 100 µM.

Question: What about the TGI (RPMI-8226 leukemia) of the same compound?
Answer: The TGI was > 100 µM.

Question: What about the TGI (HCT-116 colon) of the same compound?
Answer: Its TGI is > 100 µM.

Question: And the TGI (OVCAR-8 ovarian)?
Answer: The TGI was > 100 µM.

Question: And the TGI (A549 NSCLC)?
Answer: Its TGI is > 100 µM.

Question: What about the TGI (DMS 114 small cell lung) of the same compound?
Answer: Its TGI is > 100 µM.

Question: And the TGI (LOX IMVI melanoma)?
Answer: The TGI was > 100 µM.

Question: What about the TGI (KM12 colon) of the same compound?
Answer: Its TGI is > 100 µM.

Question: What about the TGI (OVCAR-5 ovarian) of the same compound?
Answer: Its TGI is > 100 µM.

Question: What about the TGI (DLD-1 colon) of the same compound?
Answer: Its TGI is > 100 µM.

Question: And the TGI (HOP-62 NSCLC)?
Answer: Its TGI is > 100 µM.

Question: And the TGI (EKVX NSCLC)?
Answer: The TGI was > 100 µM.

Question: What about the TGI (OVCAR-3 ovarian) of the same compound?
Answer: Its TGI is > 100 µM.

Question: And the TGI (SW-620 colon)?
Answer: The TGI was > 100 µM.

Question: What about the TGI (HCT-15 colon) of the same compound?
Answer: Its TGI is > 100 µM.

Question: What about the TGI (NCI-H460 lung) of the same compound?
Answer: Its TGI is > 100 µM.

Question: What about the TGI (NCI-H226 lung) of the same compound?
Answer: The TGI was > 100 µM.

Question: What about the TGI (HT29 colon) of the same compound?
Answer: The TGI was > 100 µM.

Question: And the TGI (786-0 renal)?
Answer: Its TGI is > 100 µM.

Question: And the TGI (CAKI-1 renal)?
Answer: Its TGI is > 100 µM.

Question: What about the TGI (HOP-92 NSCLC) of the same compound?
Answer: The TGI was > 100 µM.

Question: And the TGI (NCI-H23 lung)?
Answer: Its TGI is > 100 µM.

Question: What does the source list for `NC(=O)CCC(NC(=O)Cc1ccccc1)C(=O)O` (stereo not drawn) (tested in a mixture with another compound)?
Answer: TGI (NCI-H522 lung): > 8130 µM; TGI (SK-MEL-2 melanoma): > 8130 µM; TGI (HOP-18 NSCLC): > 8130 µM; TGI (OVCAR-4 ovarian): > 8130 µM; TGI (IGROV1 ovarian): > 8130 µM; TGI (SNB-19 CNS): > 8130 µM; TGI (LXFL 529 NSCLC): > 8130 µM; TGI (M19-MEL melanoma): > 8130 µM; TGI (M14 melanoma): > 8130 µM; TGI (U251 CNS): > 8130 µM; TGI (UO-31 renal): 2100 µM and > 8130 µM; TGI (TK-10 renal): > 8130 µM; TGI (SK-MEL-5 melanoma): > 8130 µM; TGI (HCC-2998 colon): > 8130 µM; TGI (COLO 205 colon): > 8130 µM; TGI (A498 renal): > 8130 µM; TGI (SF-268 CNS): > 8130 µM; TGI (KM20L2 colon): > 8130 µM; TGI (UACC-62 melanoma): > 8130 µM; TGI (SR leukemia): > 8130 µM; TGI (RXF 393 renal): 2030 µM and > 8130 µM; TGI (HL-60(TB) leukemia): > 8130 µM; TGI (K-562 leukemia): > 8130 µM; TGI (MOLT-4 leukemia): > 8130 µM; TGI (SNB-75 CNS): 1680 µM and > 8130 µM; TGI (SN12C renal): > 8130 µM; TGI (SK-MEL-28 melanoma): > 8130 µM; TGI (SK-OV-3 ovarian): > 8130 µM; TGI (MALME-3M melanoma): > 8130 µM; TGI (SF-539 CNS): > 8130 µM; TGI (SF-295 CNS): > 8130 µM; TGI (CCRF-CEM leukemia): > 8130 µM; TGI (DMS 273 small cell lung): > 2470 µM; TGI (RPMI-8226 leukemia): > 8130 µM; TGI (HCT-116 colon): > 8130 µM; TGI (OVCAR-8 ovarian): > 8130 µM; TGI (A549 NSCLC): > 8130 µM; TGI (DMS 114 small cell lung): > 8130 µM; TGI (KM12 colon): > 8130 µM; TGI (OVCAR-5 ovarian): > 8130 µM; TGI (DLD-1 colon): > 8130 µM; TGI (HOP-62 NSCLC): > 8130 µM; TGI (EKVX NSCLC): > 8130 µM; TGI (OVCAR-3 ovarian): > 8130 µM; TGI (SW-620 colon): > 8130 µM; TGI (HCT-15 colon): > 2470 µM; TGI (HT29 colon): > 8130 µM; TGI (786-0 renal): > 8130 µM; TGI (CAKI-1 renal): > 8130 µM; TGI (HOP-92 NSCLC): > 8130 µM; TGI (NCI-H23 lung): > 8130 µM
